Laboratory results published in patent US20250134874A1, “PHARMACEUTICAL FORMULATIONS COMPRISING 3-({[(4R)-7-{METHYL[4-(PROPAN-2-YL)PHENYL]AMINO}-3,4-DIHYDRO-2H-1-BENZOPYRAN-4-YL]METHYL}AMINO)PYRIDINE-4-CARBOXYLIC ACID” (TACHYON THERAPEUTICS, INC., priority 2021, published 2025).

Test system: 301 cancer cell lines from different tumor types (OncoPanel; HD Biosciences)
Assay: 2D cell viability inhibition assay (CellTiter-Glo) in cancer cell line panel
Assay type: cell-based
Design: key to AUC: AUC as fraction of the no-inhibition area (dose range × 0–100 % of control)
Settings: for Emax: in %
Procedure: In a larger screening study, compound 1 was evaluated across a broad cancer cell line panel (OncoPanel; HD Biosciences) composed of 301 cancer cell lines from different tumor types.
2D cell viability inhibition assays were performed in multiwell plates seeded with cells from the panel. After seeding, the plates were cultured overnight in a humidified incubator at 37° C. to promote adherence. Assays were initiated in individual wells by adding either DMSO as a vehicle control, growth media as a blank, or serially diluted compound 1 (10 μM to 0.0005 μM with 1:3 serial dilution). Cultures were incubated for 168 hours after which the number of viable cells in each test well was assessed using the CellTiter-Glo® Luminescent Cell Viability Assay. Luminescence readouts were performed using an EnVision® Multilabel Reader and the compound 1 readouts were normalized to the DMSO control readouts, expressed as a percent of the control. Outliers were flagged out by visual inspection. Percent of control was plotted against the corresponding compound 1 concentration and the absolute IC50 value was determined using four-parameter logistic non-linear regression as the concentration where inhibition was 50% of the control. For maximum inhibition <50%, the absolute IC50 was reported as >10. In addition to EC50 and IC50, AUC was determined and was normalized to the area corresponding to theoretical no-inhibition (the rectangular area defined by the compound dose range and 0 to 100 in y). Emax was recorded as the minimum in y with the compound dose range. For those cell lines where Emax>40, EC50 was manually set to 10 μM. A hierarchical clustering algorithm based on Euclidean distance between the standardized input values and “Ward.D” method as implemented in R hclust function was used to visualize the compound 1 cellular potency data. The sensitive/moderate/resistant calls for each cell line was determined by visually inspecting the resulting clustering dendrogram. All the analyses were done in R Core Team.

[1] = Homo sapiens, 143B, 143B cell line
[2] = Homo sapiens, 647-V, 647V cell line
[3] = Homo sapiens, 786-0, 7860 cell line
[4] = Homo sapiens, A101D, A101D cell line
[5] = Homo sapiens, A549, A549 cell line
[6] = Homo sapiens, A2058, A2058 cell line
[7] = Homo sapiens, A2780, A2780 cell line
[8] = Homo sapiens, A-375, A375 cell line
[9] = Homo sapiens, ACHN, ACHN cell line
[10] = Homo sapiens, AGS, AGS cell line
[11] = Homo sapiens, ASPC1, ASPC1 cell line
[12] = Homo sapiens, AZ-521, AZ521 cell line
[13] = Homo sapiens, BFTC-905, BFTC905 cell line
[14] = Homo sapiens, BT-549, BT549 cell line
[15] = Homo sapiens, BXPC-3, BXPC3 cell line
[16] = Homo sapiens, C32, C32 cell line
[17] = Homo sapiens, CAKI-1, CAKI1 cell line
[18] = Homo sapiens, CFPAC-1, CFPAC1 cell line
[19] = Homo sapiens, CHL-1, CHL1 cell line
[20] = Homo sapiens, COLO 205, COLO205 cell line
[21] = Homo sapiens, COLO-320-HSR, COLO320HSR cell line
[22] = Homo sapiens, COLO-679, COLO679 cell line
[23] = Homo sapiens, COLO-680N, COLO680N cell line
[24] = Homo sapiens, COLO-741, COLO741 cell line
[25] = Homo sapiens, COR-L279, CORL279 cell line

CC(C)c1ccc(N(C)c2ccc3c(c2)OCC[C@H]3CNc2cnccc2C(=O)O)cc1 [Compound 1, 3-({[(4R)-7-{methyl[4-(propan-2-yl)phenyl]amino}-3,4-dihydro-2H-1-benzopyran-4-yl]methyl}amino)pyridine-4-carboxylic acid]
AUC (HCC1599 cell line): 0.4639 | Emax (HCC1599 cell line): 32.7 | AUC (HCC1806 cell line): 0.5325 | Emax (HCC1806 cell line): 36.87 | AUC (HCC1937, breast, ductal carcinoma, 168 hours): 0.9094 | AUC (HCC1954 cell line): 0.5912 | AUC (HCC2935 cell line): 0.6922 | AUC (HCT15 cell line): 0.1838 | Emax (HCT15 cell line): 4.541 | AUC (HCT116 cell line): 0.5356 | AUC (HEL cell line): 0.5268 | Emax (HEL cell line): 28.89 | AUC (HEP3B217 cell line): 0.6448 | IC50 (HEP3B217 cell line): 129 nM | AUC (HEPG2 cell line): 0.6086 | AUC (HL60 cell line): 0.3703 | Emax (HL60 cell line): 9.446 | AUC (HLE cell line): 0.3839 | Emax (HLE cell line): 7.876 | AUC (HLF cell line): 0.4657 | Emax (HLF cell line): 18.25 | EC50 (HLF, HLF cell line): 11.5 nM | IC50 (HLF, HLF cell line): 18 nM | AUC (HMCB cell line): 0.5041 | Emax (HMCB cell line): 32.25 | AUC (HPAC cell line): 0.3965 | AUC (HS294T cell line): 0.6005 | AUC (HS578T cell line): 0.5373 | Emax (HS578T cell line): 32.75 | AUC (HS688AT, skin, NS, 168 hours): 1.105 | AUC (HS695T, skin, NS, 168 hours): 0.9238 | AUC (HS739T, breast, NS, 168 hours): 0.8686 | AUC (HS839T, skin, NS, 168 hours): 1.097 | AUC (HS852T, skin, NS, 168 hours): 0.883 | AUC (HSC2 cell line): 0.4511 | Emax (HSC2 cell line): 26.01 | AUC (HSC3 cell line): 0.6313 | AUC (HSC4 cell line): 0.4347 | Emax (HSC4 cell line): 23.28 | AUC (HT29 cell line): 0.5741 | AUC (HT55 cell line): 0.4704 | Emax (HT55 cell line): 22.172 | AUC (HT144, skin, NS, 168 hours): 0.8912 | AUC (HT1080 cell line): 0.5438 | Emax (HT1080 cell line): 29.74 | AUC (HT1376 cell line): 0.5519 | AUC (HUH1 cell line): 0.4145 | Emax (HUH1 cell line): 11.68 | AUC (HUH7 cell line): 0.3926 | Emax (HUH7 cell line): 7.054 | AUC (HUH28, biliary tract, NS, 168 hours): 0.9862 | AUC (HUTU80 cell line): 0.3016 | EC50 [1]: 13.9 nM | IC50 [1]: 14.4 nM | EC50 [2]: 11.2 nM | IC50 [2]: 12.2 nM | EC50 [3]: 11.7 nM | IC50 [3]: 22.5 nM | EC50 [4]: 6.91 nM | IC50 [4]: 11 nM | IC50 (Homo sapiens, A204, 168 h, A204, soft tissue, NS, 168 hours): > 10000 nM | EC50 [5]: 18.5 nM | IC50 [5]: 32.4 nM | EC50 [6]: 28.1 nM | IC50 [6]: 46.8 nM | EC50 [7]: 2.1 nM | IC50 [7]: 2.14 nM | EC50 [8]: 7.62 nM | IC50 [8]: 10.6 nM | EC50 [9]: 30.3 nM | IC50 [9]: 34.7 nM | EC50 [10]: 5.18 nM | IC50 [10]: 6.19 nM | EC50 [11]: 18.9 nM | IC50 [11]: 66.8 nM | EC50 [12]: 3.84 nM | IC50 [12]: 4.19 nM | EC50 [13]: 8.93 nM | IC50 [13]: 9.91 nM | IC50 (Homo sapiens, BT-20, 168 h, BT20, breast, ductal carcinoma, 168 hours): > 10000 nM | IC50 (Homo sapiens, BT-474, 168 h, BT474, breast, ductal carcinoma, 168 hours): > 10000 nM | EC50 [14]: 5.84 nM | IC50 [14]: 9.98 nM | EC50 [15]: 8.45 nM | IC50 [15]: 19.4 nM | IC50 (Homo sapiens, C2BBe1, 168 h, C2BBE1, large intestine, adenocarcinoma, 168 hours): > 10000 nM | EC50 [16]: 5.18 nM | IC50 [16]: 5.36 nM | EC50 [17]: ≥ 10000 nM | IC50 [17]: 4.43 nM | IC50 (Homo sapiens, CAL-27, 168 h, CAL27, upper aerodigestive tract, squamous cell carcinoma, 168 hours): > 10000 nM | IC50 (Homo sapiens, CAPAN-1, CAPAN1 cell line): 116 nM | IC50 (Homo sapiens, CCF-STTG1, 168 h, CCFSTTG1, central nervous system, astrocytoma, 168 hours): > 10000 nM | EC50 [18]: 11.3 nM | IC50 [18]: 15.3 nM | EC50 [19]: 4.68 nM | IC50 [19]: 6.08 nM | EC50 [20]: 5.97 nM | IC50 [20]: 11.5 nM | EC50 [21]: 4.46 nM | IC50 [21]: 4.61 nM | EC50 [22]: 2340 nM | IC50 [22]: 2040 nM | EC50 [23]: 4.79 nM | IC50 [23]: 6.97 nM | EC50 [24]: 6.86 nM | IC50 [24]: 10.4 nM | IC50 (Homo sapiens, COLO-829, COLO829 cell line): > 10000 nM | EC50 [25]: 4.23 nM | IC50 [25]: 4.34 nM | IC50 (Homo sapiens, Calu-1, 168 h, CALU1, lung, squamous cell carcinoma, 168 hours): > 10000 nM | IC50 (Homo sapiens, Calu-3, 168 h, CALU3, lung, adenocarcinoma, 168 hours): > 10000 nM | EC50 (Homo sapiens, Calu-6, CALU6 cell line): 11.5 nM
